Experimental data taken from patent publication US20210254272A1, “TEXTILES HAVING ANTIMICROBIAL PROPERTIES” (Livinguard AG, priority 2015, published 2021).

Assay: Leaching: 10 grams fabric in 100 milliliters distilled water, 7 days, GC-MS
Format: physicochemical
Method: To test for a potential leaching of the antimicrobial agents fixed to the textile material, the following test was performed. A test fabric of polyester 65%/cotton 35% with 210 g/m2 was treated with polyhexamethylenebiguanide (PHMB) 0.5%, silver chloride 0.075%, octadecylaminomethyl trihydroxysilylpropyl ammonium chloride (organosilane) 0.4%, and propiconazole 0.5%
The treated textile material was put into distilled water at a ratio of 1:10. Specifically, a fabric of 10 grams was soaked in 100 milliliters of distilled water. The fabric was incubated in the water for 7 days at room temperature, i.e. between 21 and 25° C.
Following said incubation time, the fabric was removed from the water and the exposed water was tested for the presence of the above five active ingredients using gas chromatography-mass spectrometry (GC-MS).

## [Cl][Ag] [Silver chloride]
  Extracted water Conc, ppm: BDL (BDL-below detection limit Detection limit: 1 parts per million (ppm))
